Laboratory results reported in US20220211796A1, “PEPTIDE ANTIBIOTICS AND METHODS OF USE THEREOF” (priority 2019, published 2022).
≈ marks a conversion by molar mass, not a printed value. Numbered stars: 1 amine (or outer) side, 2 acyl side, 3 side chain; on linkers, the order of the positions; unused ones are H or OH. Bridge positions count the residues as written; N and C are the ends. Square brackets hold non-standard residues; d marks the D form. Peptide text beside a SMILES is read from it. TBMB = c1c(C[*:1])cc(C[*:3])cc1C[*:2]

Tests used:
HeLa cells = assay: Mammalian cytotoxicity (MTT) assay; conditions: 24 h, b121: concentrations up to 256 μg/ml
Procedure: Cervical cancer cells (HeLa) were cultured in Dulbecco's Modified Eagle's medium (DMEM) (Invitrogen #11995-073) supplemented with 10% bovine calf serum at 37° C., 5% CO2, and seeded (5×10^3 cells/well) in 96-well plate flat-bottomed plate for 24 h before the assay. […] After washing the cells with PBS, the cells were subjected to the standard yellow tetrazolium (3-(4,5-dimethylthiazol-2-yl)-2,5-diphenyltetrazolium bromide (MTT) assay protocol at final concentration of 0.5 mg/ml for 4 h in a humidified 5% CO2 atmosphere at 37° C. MTT solution was then aspirated, and the purple formazan crystals were resuspended in DMSO by incubation for 5 min at 37° C. The absorbance at 540 nm was then read using a microplate reader. Viability control (100% viability) was assigned to samples with only HeLa cells and DMEM media, 0% viability was assigned to samples with 1% added Triton-X-100 and no peptide. Experiments were performed as triplicates at different days.

[1] = system: Methicillin-resistant S. aureus (MRSA) ATCC 43300; assay: microbe, parasite or virus in culture; conditions: Table 6; MRSA ATCC43300
Procedure: (§1) The L-peptides identified from five different phage display libraries were catalogued as described previously and selected sequences were synthesized in D-enantiomeric form by SPPS for further investigation in several biological assays.
(§2) MICs were determined according to a 96-well microdilution protocol outlined by the Clinical and Laboratory Standard Institute (CLSI) guideline with modifications for peptide antibiotics reported by Wiegand et al.^35 Two-fold serial peptide dilutions were performed to go from 2560 μg/ml to 5 μg/ml in0.2% BSA and 0.01% acetic acid buffer in 96-well polypropylene plates (COSTAR, #3879). Dilution of bacterial suspensions (1:200) of different bacterial strains that were grown until 0.5 McFarland standard were prepared to obtain a final inoculum concentration of 8×10^5 CFU/ml in Mueller-Hinton broth.

[2] = system: high level vancomycin resistant E. faecium (vanA) ATCC 51559; assay: microbe, parasite or virus in culture; conditions: Table 6; high level vancomycin resistant E. faecium ATCC51559
Procedure: as §1, §2

B. subtilis ATCC 6633 = assay: microbe, parasite or virus in culture; conditions: Table 6; B. subtilis ATCC6633
Procedure: as §1, §2

S. aureus ATCC 6538 = assay: microbe, parasite or virus in culture; conditions: Table 6; S. aureus ATCC6538
Procedure: as §1, §2

E. coli ATCC 25992 = assay: microbe, parasite or virus in culture; conditions: Table 6; E. Coli ATCC25992
Procedure: as §1, §2

E. faecalis ATCC 29121 = assay: microbe, parasite or virus in culture; conditions: Table 6; E. faecalis ATCC29121
Procedure: as §1, §2

[3] = system: low level vancomycin resistant E. faecium (vanB) ATCC 51299; assay: microbe, parasite or virus in culture; conditions: Table 6; low level vancomycin resistant E. faecium ATCC51299
Procedure: as §1, §2

Row | Structure (SMILES) | cytotoxicity on HeLa cells (HeLa cells) | MIC MRSA [1] | MIC VRE (vanA) [2] | MIC B. subtilis (B. subtilis ATCC 6633) | MIC S. aureus (S. aureus ATCC 6538) | MIC E. coli (E. coli ATCC 25992) | MIC E. faecalis (E. faecalis ATCC 29121) | MIC VRE (vanB) [3]
1 | CC[C@H](C)[C@H](NC(=O)CN)C(=O)NCC(=O)N[C@@H](C)C(=O)N[C@H](C(=O)N[C@@H](CC(C)C)C(=O)N[C@@H](CCCCN)C(=O)N[C@H](C(=O)N[C@@H](CC(C)C)C(=O)N[C@H](C(=O)N[C@H](C(=O)NCC(=O)N[C@@H](CC(C)C)C(=O)N1CCC[C@H]1C(=O)N[C@@H](C)C(=O)N[C@@H](CC(C)C)C(=O)N[C@H](C(=O)N[C@@H](CO)C(=O)N[C@@H](Cc1c[nH]c2ccccc12)C(=O)N[C@H](C(=O)N[C@@H](CCCCN)C(=O)N[C@@H](CCCNC(=N)N)C(=O)N[C@@H](CCCCN)C(=O)N[C@@H](CCCNC(=N)N)C(=O)N[C@@H](CCC(N)=O)C(=O)N[C@@H](CCC(N)=O)C(N)=O)[C@@H](C)CC)[C@@H](C)CC)[C@@H](C)O)[C@@H](C)O)C(C)C)C(C)C [P2, Melittin] | toxic | – | – | – | – | – | – | –
2 | CSCC[C@H]1NC(=O)[C@@H](CC(=O)O)NC(=O)[C@H]2CSCc3cc(cc(c3)CSC[C@H](C(N)=O)NC(=O)[C@@H](Cc3c[nH]cn3)NC(=O)[C@@H](CC(C)C)NC1=O)CSC[C@@H](N)C(=O)N[C@H](CCC(N)=O)C(=O)N[C@H](Cc1ccc(O)cc1)C(=O)N[C@H](CC(N)=O)C(=O)N[C@H](CC(=O)O)C(=O)N2 [P16, COYNDCDMLHC] (H-[dC][dQ][dY][dN][dD][dC][dD][dM][dL][dH][dC]-NH2; linker 1-6-11 via TBMB) | – | 128 µg/mL (≈ 87.8 µM) | >256 µg/mL | 64 µg/mL (≈ 43.9 µM) | 64 µg/mL (≈ 43.9 µM) | >256 µg/mL | 128 µg/mL (≈ 87.8 µM) | >256 µg/mL
3 | CC[C@@H](C)[C@H]1NC(=O)[C@@H](C(C)C)NC(=O)[C@H]2CSCc3cc(cc(c3)CSC[C@H](C(N)=O)NC(=O)[C@@H](CC(=O)O)NC1=O)CSC[C@@H](N)C(=O)N[C@H](CC(C)C)C(=O)N[C@H](CO)C(=O)N[C@H](CCC(N)=O)C(=O)N[C@H](Cc1ccccc1)C(=O)N2 [P17, CLSQFCVIDC] (H-[dC][dL][dS][dQ][dF][dC][dV][dI][dD][dC]-NH2; linker 1-6-10 via TBMB) | – | >256 µg/mL | >256 µg/mL | 128 µg/mL (≈ 103 µM) | 128 µg/mL (≈ 103 µM) | >256 µg/mL | >256 µg/mL | >256 µg/mL
4 | CC(C)C[C@H]1NC(=O)[C@@H](CCC(N)=O)NC(=O)[C@@H](CO)NC(=O)[C@@H](CO)NC(=O)[C@@H](CO)NC(=O)[C@H]2CSCc3cc(cc(c3)CSC[C@H](C(N)=O)NC(=O)[C@@H](Cc3ccc(O)cc3)NC1=O)CSC[C@@H](N)C(=O)N[C@H]([C@H](C)O)C(=O)N[C@H](CCCNC(=N)N)C(=O)N[C@H](C(C)C)C(=O)N2 [P19, CTRVCSSSQLYC] (H-[dC][dT][dR][dV][dC][dS][dS][dS][dQ][dL][dY][dC]-NH2; linker 1-5-12 via TBMB) | – | >256 µg/mL | >256 µg/mL | 128 µg/mL (≈ 87.5 µM) | 128 µg/mL (≈ 87.5 µM) | >256 µg/mL | >256 µg/mL | >256 µg/mL
